From US10532987B2, “Compounds and methods for inducing browning of white adipose tissue” (GUANGZHOU INSTITUTES OF BIOMEDICINE AND HEALTH, CHINESE …, priority 2015, dated 2020)

system: Ucp1; assay: UCP1 luciferase assay (Ucp1 up-regulation in differentiated inguinal adipocytes of Ucp1-luciferase knock-in mice); type: cell-based; settings: Mus musculus, Adipocyte, 48 h; at 0.3 μM; 2 days treatment; luciferase activity; read-out: Ucp1 activation fold/corresponding concentration
Description: TEST EXAMPLE 1 UCP1 Luciferase Assay
Evaluating Compounds that Induce Ucp1 Up-Regulation
Ucp1-luciferase knock-in mice will be housed in cages and fed on standard chow diets (the detailed procedures please see reference 14). The 8-week-old mice will be killed by the cervical dislocation and put into 75% alcohol for 5 minutes. The inguinal adipose tissue will be dissected out and transferred to the three 10-cm petri dishes and washed with PBS for three times. The adipose tissue will be dissected and minced on a 10-cm petri dish for several minutes and then pipetted into 20 ml 0.1% collagenase solution in 50 ml conical tubes and digested at 37° C. for 1 hour. Next, 20 ml culture medium will be added to terminate the digestion and centrifuged for 10 minutes at 1000 rpm respectively. The supernatants will be removed and the pellets re-suspended in 10 mL culture medium and plated into 10-cm plates. The cells will be left to adhere to the plates overnight and the culture medium will be changed every other day. The confluent cells will be trypsinized, counted and plated to 24-well plate (5×10^4 cells/well). The cells will be washed and re-fed the next day (as day −2). Two days later (day 0), the cells will usually become confluent and be induced to differentiate with MDIR medium. On day 2, the medium will be changed to IR medium and re-fed every 2 days. Complete differentiation is usually achieved by day 10. On day 10, the medium will be changed to the culture medium of 10% FBS/DMEM with indicated drugs along with the positive and negative controls for 2 days. The media will be removed and the cells washed with 1 ml PBS per well three times. Then 100 μl lysis buffer will be used to lyse the cells at 4° C. for 1 hour. 30 μl culture medium, 30 μl cell lysates and 60 μl Steady-Glo® Reagent were added to a well of 96-well-plate and the luminescence will be measured using a luminometer. The protein concentration will be determined using 20 μl cell lysates and specific activity of luciferase will be tabulated and data analyzed.

SMILES	fold induction at 0.3 µM
c1ccc(Nc2nc(-c3c[nH]c4ccccc34)cs2)nc1 [Compound 7, 4-(1H-indol-3-yl)-N-(pyridin-2-yl)thiazol-2-amine]	1.2
COc1ccc(-c2csc(Nc3ccccn3)n2)c(OC)c1 [Compound 15, 4-(2,4-dimethoxyphenyl)-N-(pyridin-2-yl)thiazol-2-amine]	1.4
COc1ccc(-c2csc(NC(C)=O)n2)cc1OC [Compound 29, N-(4-(3,4-dimethoxyphenyl)thiazol-2-yl)acetamide]	1.2
O=C(O)COc1ccc(-c2csc(Nc3ccccn3)n2)cc1 [Compound 45, 2-(4-(2-(pyridin-2-ylamino)thiazol-4-yl)phenoxy)acetic acid]	1.3

same assay, conditions: Mus musculus, Adipocyte, 48 h; at 1 μM; 2 days treatment; luciferase activity; read-out: Ucp1 activation fold/corresponding concentration

SMILES	fold induction at 1 µM
COc1ccc(-c2csc(Nc3cc(C)ccn3)n2)cc1OC [Compound 2, 4-(3,4-dimethoxyphenyl)-N-(4-methylpyridin-2-yl)thiazol-2-amine]	1.1
COc1cccc(-c2csc(Nc3ccccn3)n2)c1 [Compound 3, 4-(3-methoxyphenyl)-N-(pyridin-2-yl)thiazol-2-amine]	2.8
COc1ccc(-c2csc(Nc3cc4ccccc4cn3)n2)cc1OC [Compound 6, 4-(3,4-dimethoxyphenyl)-N-(isoquinolin-3-yl)thiazol-2-amine]	1.2
c1ccc(Nc2nc(-c3cccnc3)cs2)nc1 [Compound 9, N-(pyridin-2-yl)-4-(pyridin-3-yl)thiazol-2-amine]	3.6
COc1ccc(-c2csc(Nc3ccc(C)cn3)n2)cc1OC [Compound 11, 4-(3,4-dimethoxyphenyl)-N-(5-methylpyridin-2-yl)thiazol-2-amine]	2
COc1ccc(-c2csc(Nc3ncccc3C)n2)cc1OC [Compound 12, 4-(3,4-dimethoxyphenyl)-N-(3-methylpyridin-2-yl)thiazol-2-amine]	1.2
COc1cc(-c2csc(Nc3ccccn3)n2)cc(OC)c1OC [Compound 17, N-(pyridin-2-yl)-4-(3,4,5-trimethoxyphenyl)thiazol-2-amine]	1.9
COc1ccc(-c2nc(Nc3ccccn3)sc2C)cc1OC [Compound 19, 4-(3,4-dimethoxyphenyl)-5-methyl-N-(pyridin-2-yl)thiazol-2-amine]	1.6
Fc1ccc(-c2csc(Nc3ccccn3)n2)cc1 [Compound 22, 4-(4-fluorophenyl)-N-(pyridin-2-yl)thiazol-2-amine]	3.9
c1ccc(Nc2nc(-c3ccccn3)cs2)nc1 [Compound 27, N,4-di(pyridin-2-yl)thiazol-2-amine]	3.3
COc1ccc(-c2csc(NC(=O)c3ccccc3)n2)cc1OC [Compound 30, N-(4-(3,4-dimethoxyphenyl)thiazol-2-yl)benzamide]	1.1
CNc1nc(-c2ccc(OC)c(OC)c2)cs1 [Compound 31, 4-(3,4-dimethoxyphenyl)-N-methylthiazol-2-amine]	1.1
O=[N+]([O-])c1ccc(-c2csc(Nc3ccccn3)n2)cc1 [Compound 34, 4-(4-nitrophenyl)-N-(pyridin-2-yl)thiazol-2-amine]	3.8
Nc1ccc(-c2csc(Nc3ccccn3)n2)cc1 [Compound 35, 4-(4-aminophenyl)-N-(pyridin-2-yl)thiazol-2-amine]	3.7
CC(=O)Nc1ccc(-c2csc(Nc3ccccn3)n2)cc1 [Compound 36, N-(4-(2-(pyridin-2-ylamino)thiazol-4-yl)phenyl)acetamide]	3.8
CCCC(=O)Nc1ccc(-c2csc(Nc3ccccn3)n2)cc1 [Compound 39, N-(4-(2-(pyridin-2-ylamino)thiazol-4-yl)phenyl)butyramide]	3.4
Oc1ccc(-c2csc(Nc3ccccn3)n2)cc1 [Compound 41, 4-(2-(pyridin-2-ylamino)thiazol-4-yl)phenol]	3.3
CC(C)Oc1ccc(-c2csc(Nc3ccccn3)n2)cc1 [Compound 42, 4-(4-isopropoxyphenyl)-N-(pyridin-2-yl)thiazol-2-amine]	2
CCCCOc1ccc(-c2csc(Nc3ccccn3)n2)cc1 [Compound 43, 4-(4-butoxyphenyl)-N-(pyridin-2-yl)thiazol-2-amine]	2.8

same assay, conditions: Mus musculus, Adipocyte, 48 h; at 3 μM; 2 days treatment; luciferase activity; read-out: Ucp1 activation fold/corresponding concentration

SMILES	fold induction at 3 µM
c1ccc(-c2csc(Nc3ccccn3)n2)cc1 [Compound 4, 4-phenyl-N-(pyridin-2-yl)thiazol-2-amine]	4.1
N#Cc1cccc(-c2csc(Nc3ccccn3)n2)c1 [Compound 5, 3-(2-(pyridin-2-ylamino)thiazol-4-yl)benzonitrile]	5.4
COc1ccc(-c2csc(Nc3cccc(C)n3)n2)cc1OC [Compound 10, 4-(3,4-dimethoxyphenyl)-N-(6-methylpyridin-2-yl)thiazol-2-amine]	3.8
COc1ccc(-c2csc(Nc3cc(Cl)ccn3)n2)cc1OC [Compound 13, N-(4-chloropyridin-2-yl)-4-(3,4-dimethoxyphenyl)thiazol-2-amine]	1.6
COc1ccc(-c2csc(Nc3nc4ccc(C)cc4s3)n2)cc1OC [Compound 14, N-(4-(3,4-dimethoxyphenyl)thiazol-2-yl)-6-methylbenzo[d]thiazol-2-amine]	2.4
CN(C)c1ccc(-c2csc(Nc3ccccn3)n2)cc1 [Compound 16, 4-(4-(dimethylamino)phenyl)-N-(pyridin-2-yl)thiazol-2-amine]	5.1
COc1cc(OC)cc(-c2csc(Nc3ccccn3)n2)c1 [Compound 18, 4-(3,5-dimethoxyphenyl)-N-(pyridin-2-yl)thiazol-2-amine]	5.3
COc1ccc(-c2csc(Nc3ccccc3)n2)cc1OC [Compound 20, 4-(3,4-dimethoxyphenyl)-N-phenylthiazol-2-amine]	3
Cc1ccc(-c2csc(Nc3ccccn3)n2)cc1 [Compound 21, N-(pyridin-2-yl)-4-p-tolylthiazol-2-amine]	2.9
FC(F)(F)Oc1ccc(-c2csc(Nc3ccccn3)n2)cc1 [Compound 23, N-(pyridin-2-yl)-4-(4-(trifluoromethoxy)phenyl)thiazol-2-amine]	4
COc1ccccc1-c1csc(Nc2ccccn2)n1 [Compound 24, 4-(2-methoxyphenyl)-N-(pyridin-2-yl)thiazol-2-amine]	2.7
COc1cc(Br)ccc1-c1csc(Nc2ccccn2)n1 [Compound 25, 4-(4-bromo-2-methoxyphenyl)-N-(pyridin-2-yl)thiazol-2-amine]	1.3
c1ccc(Nc2nc(-c3ccncc3)cs2)nc1 [Compound 26, N-(pyridin-2-yl)-4-(pyridin-4-yl)thiazol-2-amine]	3.5
Brc1cc(N2CCOCC2)ccc1-c1csc(Nc2ccccn2)n1 [Compound 28, 4-(2-bromo-4-morpholinophenyl)-N-(pyridin-2-yl)thiazol-2-amine]	3.2
COc1ccc(-c2csc(NC(=O)c3ccccn3)n2)cc1OC [Compound 32, N-(4-(3,4-dimethoxyphenyl)thiazol-2-yl)picolinamide]	2.6
COc1ccc(-c2csc(Nc3cccnc3)n2)cc1OC [Compound 33, 4-(3,4-dimethoxyphenyl)-N-(pyridin-3-yl)thiazol-2-amine]	2
CC(C)NC(=O)Nc1ccc(-c2csc(Nc3ccccn3)n2)cc1 [Compound 37, 1-isopropyl-3-(4-(2-(pyridin-2-ylamino)thiazol-4-yl)phenyl)urea]	2
CCC(=O)Nc1ccc(-c2csc(Nc3ccccn3)n2)cc1 [Compound 38, N-(4-(2-(pyridin-2-ylamino)thiazol-4-yl)phenyl)propionamide]	5
Brc1ccc(-c2csc(Nc3ccccn3)n2)cc1 [Compound 40, 4-(4-bromophenyl)-N-(pyridin-2-yl)thiazol-2-amine]	3
CCOC(=O)COc1ccc(-c2csc(Nc3ccccn3)n2)cc1 [Compound 44, ethyl 2-(4-(2-(pyridin-2-ylamino)thiazol-4-yl)phenoxy)acetate]	1.9
O=C(COc1ccc(-c2csc(Nc3ccccn3)n2)cc1)N1CCOCC1 [Compound 46, 1-morpholino-2-(4-(2-(pyridin-2-ylamino)thiazol-4-yl)phenoxy)ethanone]	1.7
CCNC(=O)COc1ccc(-c2csc(Nc3ccccn3)n2)cc1 [Compound 47, N-ethyl-2-(4-(2-(pyridin-2-ylamino)thiazol-4-yl)phenoxy)acetamide]	2.4
COC(=O)c1ccc(-c2csc(Nc3ccccn3)n2)cc1 [Compound 48, methyl 4-(2-(pyridin-2-ylamino)thiazol-4-yl)benzoate]	6
